Here are results for 15 compounds from patent US20200060276A1, “THIAZOLE COMPOUND AND HERBICIDE” (OAT Agrio Co., Ltd., priority 2017, published 2020).

Holding throughout (type): in vivo
Experiment [1] relates to Echinochloa crus-galli (L.) P. Beauv. var. formosensis Ohwi. Kind of experiment: Test for Herbicidal Effect in Flooding Treatment (#1), ECHDG. As to conditions: flooding treatment at seeding, dose 2 kg/ha, visual observation on day 21. The method in brief:
(§1)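 Sieved soil in cups was flooded and left 24 h before weed seeds were sown. Compounds in acetone, diluted with Tween 80-containing water, were dropped over the whole surface at 2 kg/ha. After 21 days in a glasshouse, growth inhibition was scored visually from 0 (<10%) to 5 (≥90% or complete withering).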

Another experiment concerns Scirpus juncoides. Kind of experiment: Test for Herbicidal Effect in Flooding Treatment (#1), SCIJU. As to conditions: flooding treatment at seeding, dose 2 kg/ha, visual observation on day 21. Summed up: as §1
A further experiment deals with Cyperus microiria. Kind of experiment: Test for Herbicidal Effect in Flooding Treatment (#1), CYMIC. Conditions: flooding treatment at seeding, dose 2 kg/ha, visual observation on day 21. The method in brief: as §1
In experiment [2] the test system is Echinochloa crus-galli (L.) P. Beauv. var. formosensis Ohwi. The experiment in a line: Test for Herbicidal Effect in Flooding Treatment (#2), ECHDG at 2-2.5 leaf stage. As to conditions: flooding treatment at 2-2.5 leaf stage, dose 0.2 kg/ha, visual observation on day 21. Summed up: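 Scoring is a visual 0–5 scale of growth inhibition (0 below 10%, 5 at 90% or more or full withering), taken 21 days after treatment in a glasshouse. Dose was 0.2 kg/ha, applied as acetone/Tween 80 aqueous solution onto flooded soil once seedlings reached the 2–2.5 leaf stage.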

In the case of `CCOc1c(Cl)cc(CS(=O)(=O)c2ncc(Cl)s2)cc1Cl` [Compound 1C-106], the “ECHDG #1 herbicidal effect (growth inhibition grade)” value in experiment [1] is 5 (Growth inhibition effect is equal to or greater than 90%, or complete withering is achieved). For the same compound, the “SCIJU #1 herbicidal effect (growth inhibition grade)” value with Scirpus juncoides is 5 (Growth inhibition effect is equal to or greater than 90%, or complete withering is achieved). Further, the “CYMIC #1 herbicidal effect (growth inhibition grade)” value in the experiment with Cyperus microiria was 5 (Growth inhibition effect is equal to or greater than 90%, or complete withering is achieved). Besides, in experiment [2], the “ECHDG (2-2.5L) #2 herbicidal effect (growth inhibition grade)” value was 3 (Growth inhibition effect equal to or greater than 50%, and less than 70%).
Regarding `CCOc1c(C)cc(CS(=O)(=O)c2ncc(Cl)s2)cc1C` [Compound 1C-107], the “ECHDG #1 herbicidal effect (growth inhibition grade)” value in experiment [1] is 5 (Growth inhibition effect is equal to or greater than 90%, or complete withering is achieved). Moreover, the “SCIJU #1 herbicidal effect (growth inhibition grade)” value in the experiment with Scirpus juncoides is recorded as 5 (Growth inhibition effect is equal to or greater than 90%, or complete withering is achieved). The “CYMIC #1 herbicidal effect (growth inhibition grade)” value with Cyperus microiria is recorded as 5 (Growth inhibition effect is equal to or greater than 90%, or complete withering is achieved). Also, in experiment [2], the “ECHDG (2-2.5L) #2 herbicidal effect (growth inhibition grade)” value is 4 (Growth inhibition effect is equal to or greater than 70%, and less than 90%).
For the compound `CCOc1c(F)c(F)c(CS(=O)(=O)c2ncc(Cl)s2)c(F)c1F` [Compound 1C-108], in experiment [1], the “ECHDG #1 herbicidal effect (growth inhibition grade)” value was 5 (Growth inhibition effect is equal to or greater than 90%, or complete withering is achieved). For the same compound, the “SCIJU #1 herbicidal effect (growth inhibition grade)” value in the experiment with Scirpus juncoides was 5 (Growth inhibition effect is equal to or greater than 90%, or complete withering is achieved). Further, the “CYMIC #1 herbicidal effect (growth inhibition grade)” value in the experiment with Cyperus microiria was 5 (Growth inhibition effect is equal to or greater than 90%, or complete withering is achieved). Also, the “ECHDG (2-2.5L) #2 herbicidal effect (growth inhibition grade)” value in experiment [2] is recorded as 5 (Growth inhibition effect is equal to or greater than 90%, or complete withering is achieved).
Regarding `CCCOc1cc(F)c(CS(=O)(=O)c2ncc(Cl)s2)c(F)c1` [Compound 1C-109], the “ECHDG #1 herbicidal effect (growth inhibition grade)” value in experiment [1] is given as 5 (Growth inhibition effect is equal to or greater than 90%, or complete withering is achieved). In the experiment on Scirpus juncoides, the “SCIJU #1 herbicidal effect (growth inhibition grade)” value is 5 (Growth inhibition effect is equal to or greater than 90%, or complete withering is achieved). In addition, the “CYMIC #1 herbicidal effect (growth inhibition grade)” value with Cyperus microiria was 5 (Growth inhibition effect is equal to or greater than 90%, or complete withering is achieved). Besides, the “ECHDG (2-2.5L) #2 herbicidal effect (growth inhibition grade)” value in experiment [2] is 4 (Growth inhibition effect is equal to or greater than 70%, and less than 90%).
With `CC(C)Oc1cc(F)c(CS(=O)(=O)c2ncc(Cl)s2)c(F)c1` [Compound 1C-111], the “ECHDG #1 herbicidal effect (growth inhibition grade)” value in experiment [1] is given as 5 (Growth inhibition effect is equal to or greater than 90%, or complete withering is achieved). Further, in the experiment on Scirpus juncoides, the “SCIJU #1 herbicidal effect (growth inhibition grade)” value is on record as 5 (Growth inhibition effect is equal to or greater than 90%, or complete withering is achieved). Besides, the “CYMIC #1 herbicidal effect (growth inhibition grade)” value in the experiment on Cyperus microiria is 5 (Growth inhibition effect is equal to or greater than 90%, or complete withering is achieved). The “ECHDG (2-2.5L) #2 herbicidal effect (growth inhibition grade)” value in experiment [2] was 5 (Growth inhibition effect is equal to or greater than 90%, or complete withering is achieved).
For the compound `CCCCOc1cc(F)c(CS(=O)(=O)c2ncc(Cl)s2)c(F)c1` [Compound 1C-112], in experiment [1], the “ECHDG #1 herbicidal effect (growth inhibition grade)” value was 5 (Growth inhibition effect is equal to or greater than 90%, or complete withering is achieved). For the same compound, the “SCIJU #1 herbicidal effect (growth inhibition grade)” value with Scirpus juncoides is 5 (Growth inhibition effect is equal to or greater than 90%, or complete withering is achieved). For the same compound, the “CYMIC #1 herbicidal effect (growth inhibition grade)” value in the experiment on Cyperus microiria was 5 (Growth inhibition effect is equal to or greater than 90%, or complete withering is achieved). For the same compound, the “ECHDG (2-2.5L) #2 herbicidal effect (growth inhibition grade)” value in experiment [2] is 3 (Growth inhibition effect equal to or greater than 50%, and less than 70%).
`CCCCOc1cc(Cl)c(CS(=O)(=O)c2ncc(Cl)s2)c(Cl)c1` [Compound 1C-113]: the “ECHDG #1 herbicidal effect (growth inhibition grade)” value in experiment [1] was 5 (Growth inhibition effect is equal to or greater than 90%, or complete withering is achieved). Moreover, the “SCIJU #1 herbicidal effect (growth inhibition grade)” value in the experiment with Scirpus juncoides is reported as 5 (Growth inhibition effect is equal to or greater than 90%, or complete withering is achieved). The “CYMIC #1 herbicidal effect (growth inhibition grade)” value in the experiment with Cyperus microiria was 5 (Growth inhibition effect is equal to or greater than 90%, or complete withering is achieved). Also, the “ECHDG (2-2.5L) #2 herbicidal effect (growth inhibition grade)” value in experiment [2] was 5 (Growth inhibition effect is equal to or greater than 90%, or complete withering is achieved).
Take `O=S(=O)(Cc1ccc(OC(F)F)cc1)c1ncc(Cl)s1` [Compound 1C-114]: in experiment [1], the “ECHDG #1 herbicidal effect (growth inhibition grade)” value is recorded as 5 (Growth inhibition effect is equal to or greater than 90%, or complete withering is achieved). The “SCIJU #1 herbicidal effect (growth inhibition grade)” value in the experiment with Scirpus juncoides is reported as 5 (Growth inhibition effect is equal to or greater than 90%, or complete withering is achieved). In addition, the “CYMIC #1 herbicidal effect (growth inhibition grade)” value in the experiment on Cyperus microiria is given as 5 (Growth inhibition effect is equal to or greater than 90%, or complete withering is achieved). Besides, in experiment [2], the “ECHDG (2-2.5L) #2 herbicidal effect (growth inhibition grade)” value was 1 (Growth inhibition effect is equal to or greater than 10%, and less than 30%).
On to `O=S(=O)(Cc1ccc(OC(F)(F)F)cc1)c1ncc(Cl)s1` [Compound 1C-115], for which the “ECHDG #1 herbicidal effect (growth inhibition grade)” value in experiment [1] is 5 (Growth inhibition effect is equal to or greater than 90%, or complete withering is achieved). Besides, the “SCIJU #1 herbicidal effect (growth inhibition grade)” value in the experiment with Scirpus juncoides is reported as 5 (Growth inhibition effect is equal to or greater than 90%, or complete withering is achieved). Besides, in the experiment with Cyperus microiria, the “CYMIC #1 herbicidal effect (growth inhibition grade)” value is 5 (Growth inhibition effect is equal to or greater than 90%, or complete withering is achieved). Moreover, the “ECHDG (2-2.5L) #2 herbicidal effect (growth inhibition grade)” value in experiment [2] was 1 (Growth inhibition effect is equal to or greater than 10%, and less than 30%).
As to `O=S(=O)(Cc1ccc(OC(F)(F)C(F)F)cc1)c1ncc(Cl)s1` [Compound 1C-116], in experiment [1], the “ECHDG #1 herbicidal effect (growth inhibition grade)” value is listed as 5 (Growth inhibition effect is equal to or greater than 90%, or complete withering is achieved). Further, the “SCIJU #1 herbicidal effect (growth inhibition grade)” value in the experiment with Scirpus juncoides is listed as 5 (Growth inhibition effect is equal to or greater than 90%, or complete withering is achieved). For the same compound, the “CYMIC #1 herbicidal effect (growth inhibition grade)” value in the experiment on Cyperus microiria is on record as 5 (Growth inhibition effect is equal to or greater than 90%, or complete withering is achieved). Besides, in experiment [2], the “ECHDG (2-2.5L) #2 herbicidal effect (growth inhibition grade)” value is 3 (Growth inhibition effect equal to or greater than 50%, and less than 70%).
For `COCOc1cc(F)c(CS(=O)(=O)c2ncc(Cl)s2)c(F)c1` [Compound 1C-118], the “ECHDG #1 herbicidal effect (growth inhibition grade)” value in experiment [1] is given as 5 (Growth inhibition effect is equal to or greater than 90%, or complete withering is achieved). Moreover, in the experiment with Scirpus juncoides, the “SCIJU #1 herbicidal effect (growth inhibition grade)” value was 5 (Growth inhibition effect is equal to or greater than 90%, or complete withering is achieved). Further, the “CYMIC #1 herbicidal effect (growth inhibition grade)” value in the experiment on Cyperus microiria is 5 (Growth inhibition effect is equal to or greater than 90%, or complete withering is achieved). The “ECHDG (2-2.5L) #2 herbicidal effect (growth inhibition grade)” value in experiment [2] was 4 (Growth inhibition effect is equal to or greater than 70%, and less than 90%).
For `COc1cccc(CS(=O)(=O)c2ncc(Cl)s2)c1OC` [Compound 1C-124], the “ECHDG #1 herbicidal effect (growth inhibition grade)” value in experiment [1] is 5 (Growth inhibition effect is equal to or greater than 90%, or complete withering is achieved). The “SCIJU #1 herbicidal effect (growth inhibition grade)” value with Scirpus juncoides is 5 (Growth inhibition effect is equal to or greater than 90%, or complete withering is achieved). The “CYMIC #1 herbicidal effect (growth inhibition grade)” value in the experiment on Cyperus microiria was 5 (Growth inhibition effect is equal to or greater than 90%, or complete withering is achieved). In experiment [2], the “ECHDG (2-2.5L) #2 herbicidal effect (growth inhibition grade)” value is 4 (Growth inhibition effect is equal to or greater than 70%, and less than 90%).
For the compound `COc1ccc(CS(=O)(=O)c2ncc(Cl)s2)c(OC)c1` [Compound 1C-125], in experiment [1], the “ECHDG #1 herbicidal effect (growth inhibition grade)” value is on record as 5 (Growth inhibition effect is equal to or greater than 90%, or complete withering is achieved). Further, the “SCIJU #1 herbicidal effect (growth inhibition grade)” value in the experiment with Scirpus juncoides is on record as 5 (Growth inhibition effect is equal to or greater than 90%, or complete withering is achieved). Further, the “CYMIC #1 herbicidal effect (growth inhibition grade)” value in the experiment with Cyperus microiria is listed as 5 (Growth inhibition effect is equal to or greater than 90%, or complete withering is achieved). Further, in experiment [2], the “ECHDG (2-2.5L) #2 herbicidal effect (growth inhibition grade)” value is 5 (Growth inhibition effect is equal to or greater than 90%, or complete withering is achieved).
Regarding `COc1ccc(OC)c(CS(=O)(=O)c2ncc(Cl)s2)c1` [Compound 1C-126], the “ECHDG #1 herbicidal effect (growth inhibition grade)” value in experiment [1] is reported as 5 (Growth inhibition effect is equal to or greater than 90%, or complete withering is achieved). Also, in the experiment on Scirpus juncoides, the “SCIJU #1 herbicidal effect (growth inhibition grade)” value is 5 (Growth inhibition effect is equal to or greater than 90%, or complete withering is achieved). In addition, in the experiment on Cyperus microiria, the “CYMIC #1 herbicidal effect (growth inhibition grade)” value is recorded as 5 (Growth inhibition effect is equal to or greater than 90%, or complete withering is achieved). Moreover, the “ECHDG (2-2.5L) #2 herbicidal effect (growth inhibition grade)” value in experiment [2] is 3 (Growth inhibition effect equal to or greater than 50%, and less than 70%).
With `COc1cc(CS(=O)(=O)c2ncc(Cl)s2)cc(OC)c1OC` [Compound 1C-128], the “ECHDG #1 herbicidal effect (growth inhibition grade)” value in experiment [1] was 5 (Growth inhibition effect is equal to or greater than 90%, or complete withering is achieved). Also, the “SCIJU #1 herbicidal effect (growth inhibition grade)” value in the experiment with Scirpus juncoides was 4 (Growth inhibition effect is equal to or greater than 70%, and less than 90%). Besides, the “CYMIC #1 herbicidal effect (growth inhibition grade)” value with Cyperus microiria is on record as 5 (Growth inhibition effect is equal to or greater than 90%, or complete withering is achieved). In addition, the “ECHDG (2-2.5L) #2 herbicidal effect (growth inhibition grade)” value in experiment [2] is 1 (Growth inhibition effect is equal to or greater than 10%, and less than 30%).
